According to article PMC13416357 (Molecules, 2026):
Read-outs that look alike come from different tables or passages of the source.

What was measured:
[1] = biological target: T1, recombinant aSyn fibrils (Homo sapiens, UniProt P37840); set-up: method as in PMID 40256311; conditions: in vitro binding properties of lead M503-1619; cited from earlier work
[2] = biological target: T2, Aβ (Homo sapiens, UniProt P05067); set-up: method as in PMID 40256311; conditions: in vitro binding properties of lead M503-1619; cited from earlier work
T2 construct: from tissue; host or cells: Alzheimer disease (AD) brain tissue homogenate

[3] = biological target: T1, recombinant aSyn fibrils; test: In vitro radioligand binding assay with [^3H]BF2846 in recombinant aSyn fibrils
Description: The affinity of the target compounds for aSyn was performed in recombinant human fibrils using an in vitro radioligand binding assay with [^3H]BF2846 as the radioligand, which binds to site 9 in recombinant aSyn fibrils [16].
In vitro radioligand biding assays were performed by using the pervious published method [12, 15] to measure the affinity of the target compounds for aSyn and Aβ. In brief, the radioligand for the aSyn assay was [^3H]BF2846 and the assay was conducted using recombinant fibrils. Three concentrations of test compounds (10 nM, 100 nM and 1 µM) were incubated with ~4 nM [^3H]BF2846 and 50 nM aSyn fibrils in a working buffer (50 mM Tris-HCl, 0.01% bovine serum albumin) at 37 °C for 1.5 h. The mixture (150 µL) was separated by filtration through a Unifilter-96 system (PerkinElmer, Shelton, CT, USA) and washed with an ice-cold buffer (10 mM Tris-HCl (pH 7.4), 15 mM NaCl and 20% EtOH) before scintillation counting. Total binding was defined in the absence of competitor, and non-specific binding was determined using 100 nM unlabeled BF2846. […] Data from three independent experiments were analyzed by non-linear regression in GraphPad Prism v.9.3.1 (GraphPad Inc., San Diego, CA, USA) to calculate Ki values using the equation, Ki = EC50/(1 + [radioligand]/Kd).

T2 sequence (P05067 672-713 limits assumed): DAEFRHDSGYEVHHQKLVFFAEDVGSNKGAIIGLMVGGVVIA

In the case of `COc1ccc(NC(=O)c2cnc(N3CCN(c4ccccn4)CC3)nc2N)cc1` [Compound M503-1619], the Ki [1] is given as 6.5 nM and the Ki [2] is given as 390 nM.

Work on `COc1ccc(NC(=O)c2cnc(N3CCN(c4ncccn4)CC3)nc2N)cc1` [GT-9-40] yielded a Ki [3] of 41.9 ± 13.8 nM.
